Tests used:
[1] = Absorbance spectra (UV-vis); type: physicochemical
HCT-116 cells = test: Cytotoxicity by MTT assay without or with NIR irradiation; type: cell-based, human; conditions: 2.5 μg/mL
Experimental: Cell viability was determined with the MTT assay and a scanning multiwell ELISA reader (Microplate Autoreader EL311, Bio-Tek Instruments Inc., Winooski, Vt., USA). The fraction of live cells was calculated by dividing the mean optical density obtained from treated cells by the mean optical density from untreated control cells.

- maximum wavelength (λmax) of absorption ([1]; IR-780 dye diluted in THF, IR-780 micelles in PBS): about 795 nm
- λmax of absorption peak ([1]; aggregated in aqueous buffer, broad and blue-shifted): 775 nm
SMILES: CCCN1C(=CC=C2CCCC(C=CC3=[N+](CCC)c4ccccc4C3(C)C)=C2Cl)C(C)(C)c2ccccc21.[I-] [free IR-780 iodide, IR-780 iodide]
- excess cells killed (HCT-116 cells; 808 nm 0.6 W/cm^2 NIR irradiation 10 min): 0.3%
- excess cells killed (HCT-116 cells; 808 nm 0.6 W/cm^2 NIR irradiation 20 min): 26.8%

From patent US20130336889A1, “NANOPARTICLE AND METHOD FOR DETECTING OR TREATING A TUMOR USING THE SAME” (NATIONAL TAIWAN UNIVERSITY, priority 2012, published 2013)
